# Values of other authors as cited in patent publication US20060051384A1, “Antiseptic compositions and methods of use” (priority 2004, published 2006).
# Tested on: methicillin resistant staphylococcus aureus
substance,measurement,value
povidone-iodine,decrease of activity on addition of nasal secretions,80-90 wt %
